In patent publication US11718612B2, “Inhibitors of receptor interacting protein kinase I for the treatment of disease” (Board of Regents, The University of Texas System, priority 2019, dated 2023):

Test system: U937 cells
Test: Human U937 cellular necroptosis assay
Format: cell-based
Conditions: U-937; U937 cells stimulated with 25 ng/mL human TNFalpha and 25 μM z-VAD-FMK; 22 hr; Cell Titer-Glo viability
Protocol: Human U937 Cellular Necroptosis Assay
The human monocytic cell line U937 (CRL-1593.2) may be purchased from ATCC. The cells are routinely maintained in RPMI-1640 Medium (Gibco, Catalog #11875-093) supplemented with 10% heat inactivated fetal bovine serum (Gibco, Catalog #16140-071), 100 units/mL penicillin and 100 μg/mL streptomycin (Gibco, Catalog #15140-122), in a humidified incubator (37° C., 5% CO2). For the assay, cells are resuspended in RPMI-1640 phenol red free Media (Gibco, Catalog #11835-030) supplemented with 10% fetal bovine serum (Sigma, Catalog #F2442), 100 units/mL penicillin and 100 ug/mL streptomycin. […] Stock solutions of the test compounds are prepared in 100% DMSO (Sigma, Catalog #D2650) and serially diluted 1:3 using 100% DMSO. Compounds are additionally diluted 1:40 in assay medium, and 10 μL/well was transferred to the plate. Following the compound addition, the plate is incubated at 37° C. and 5% CO2 for 22 hr. After 22 hr, viability is assessed with the addition of 20 μL of Cell Titer-Glo 2.0 (Promega, Catalog #G9243). The tissue culture plate is shaken on an orbital shaker at 300 RPM for 15 minutes at room temperature in the dark. Luminescence is measured using a PerkinElmer Envision™ plate reader. IC50 values are calculated using a four-parameter logistic curve fit using Genedata Screener software.

Row | SMILES | IC50 [nM]
1 | O=C(Nc1cc(Cn2ccnc2)cc(Cl)c1F)c1ncn(Cc2ccccc2)n1 [Example 97, N-(5-((1H-imidazol-1-yl)methyl)-3-chloro-2-fluorophenyl)-1-benzyl-1H-1,2,4-triazole-3-carboxamide] | 1180
2 | N#CCc1cc(Cl)c(F)c(NC(=O)c2ncn(Cc3ccccc3)n2)c1 [Example 96, 1-Benzyl-N-(3-chloro-5-(cyanomethyl)-2-fluorophenyl)-1H-1,2,4-triazole-3-carboxamide] | 347
3 | NCc1cc(Cl)c(F)c(NC(=O)c2ncn(Cc3ccccc3)n2)c1 [Example 92, N-(5-(aminomethyl)-3-chloro-2-fluorophenyl)-1-benzyl-1H-1,2,4-triazole-3-carboxamide] | 1650
4 | COCc1cc(Cl)c(F)c(N2CCc3c(nn(Cc4cccc(F)c4F)c3Cl)C2=O)c1 [Example 81, 3-chloro-6-(3-chloro-2-fluoro-5-(methoxymethyl)phenyl)-2-(2,3-difluorobenzyl)-2,4,5,6-tetrahydro-7H-pyrazolo[3,4-c]pyridin-7-one] | > 10000
5 | Cc1cccc(Cn2nc3c(c2Cl)CCN(c2cccc(Cl)c2F)C3=O)c1 [Example 67, 3-chloro-6-(3-chloro-2-fluorophenyl)-2-(3-methylbenzyl)-2,4,5,6-tetrahydro-7H-pyrazolo[3,4-c]pyridin-7-one] | 444
6 | COCCOCc1cc(Cl)c(F)c(N2CCc3c(nn(Cc4cccc(F)c4F)c3Cl)C2=O)c1 [Example 80, 3-chloro-6-(3-chloro-2-fluoro-5-((2-methoxyethoxy)methyl)phenyl)-2-(2,3-difluorobenzyl)-2,4,5,6-tetrahydro-7H-pyrazolo[3,4-c]pyridin-7-one] | 958
7 | O=C1c2nn(Cc3cccc(F)c3F)c(Cl)c2CCN1c1cc(CO)cc(Cl)c1F [Example 79, 3-chloro-6-(3-chloro-2-fluoro-5-(hydroxymethyl)phenyl)-2-(2,3-difluorobenzyl)-2,4,5,6-tetrahydro-7H-pyrazolo[3,4-c]pyridin-7-one] | 346
8 | O=C1c2nn(Cc3cccc(F)c3F)c(Cl)c2CCN1c1cccc(Cl)c1F [Example 1, 3-chloro-6-(3-chloro-2-fluoro-phenyl)-2-[(2,3-difluorophenyl)methyl]-4,5-dihydropyrazolo[3,4-c]pyridin-7-one] | 34.2
9 | CC(c1cccc(F)c1F)n1nc2c(c1Cl)CCN(c1cccc(Cl)c1F)C2=O (stereo not drawn) [Example 55, 3-chloro-6-(3-chloro-2-fluorophenyl)-2-(1-(2,3-difluorophenyl)ethyl)-2,4,5,6-tetrahydro-7H-pyrazolo[3,4-c]pyridin-7-one] | > 10000
10 | O=C1c2nn(Cc3ncccc3F)c(Cl)c2CCN1c1cccc(Cl)c1F [Example 63, 3-chloro-6-(3-chloro-2-fluorophenyl)-2-((3-fluoropyridin-2-yl)methyl)-2,4,5,6-tetrahydro-7H-pyrazolo[3,4-c]pyridin-7-one] | 64.1
11 | N#Cc1c2c(nn1Cc1ccccc1)C(=O)N(c1cccc(Cl)c1F)CC2 [Example 71, 2-benzyl-6-(3-chloro-2-fluorophenyl)-7-oxo-4,5,6,7-tetrahydro-2H-pyrazolo[3,4-c]pyridine-3-carbonitrile] | 256
12 | C[C@@H](c1cccc(C#N)c1)n1cnc(C(=O)Nc2cccc(Cl)c2F)n1 (single isomer, unassigned) [Example 56b] | > 10000
13 | Cn1cc(Cn2nc3c(c2Cl)CCN(c2cccc(Cl)c2F)C3=O)cn1 [Example 68, 3-chloro-6-(3-chloro-2-fluorophenyl)-2-((1-methyl-1H-pyrazol-4-yl)-methyl)-2,4,5,6-tetrahydro-7H-pyrazolo[3,4-c]pyridin-7-one] | 1340
14 | CC(=O)NCc1cc(Cl)c(F)c(N2CCc3c(nn(Cc4cccc(F)c4F)c3Cl)C2=O)c1 [Example 85, N-(3-chloro-5-(3-chloro-2-(2,3-difluorobenzyl)-7-oxo-2,4,5,7-tetrahydro-6H-pyrazolo[3,4-c]pyridin-6-yl)-4-fluorobenzyl)acetamide] | 1040
15 | N#CCc1cc(Cl)c(F)c(N2CCc3c(nn(Cc4cccc(F)c4F)c3Cl)C2=O)c1 [Example 84, 2-(3-chloro-5-(3-chloro-2-(2,3-difluorobenzyl)-7-oxo-2,4,5,7-tetrahydro-6H-pyrazolo[3,4-c]pyridin-6-yl)-4-fluorophenyl)acetonitrile] | 142
16 | COCCOCc1cc(Cl)c(F)c(NC(=O)c2ncn(Cc3ccccc3)n2)c1 [Example 95] | 529
17 | O=C(Nc1cc(Cn2cnc3ccccc32)cc(Cl)c1F)c1ncn(Cc2ccccc2)n1 [Example 98, N-(5-((1H-benzo[d]imidazol-1-yl)methyl)-3-chloro-2-fluorophenyl)-1-benzyl-1H-1,2,4-triazole-3-carboxamide] | 3860

Row | SMILES | IC50 [nM]
18 | Nc1c2c(nn1Cc1ccccc1)C(=O)N(c1cccc(Cl)c1F)CC2 [Example 60, 3-amino-2-benzyl-6-(3-chloro-2-fluorophenyl)-2,4,5,6-tetrahydro-7H-pyrazolo[3,4-c]pyridin-7-one] | 1260
19 | CC(c1cccc(C#N)c1)n1cnc(C(=O)Nc2cccc(Cl)c2F)n1 (stereo not drawn) [Example 56, N-(3-chloro-2-fluorophenyl)-1-(1-(3-cyanophenyl)ethyl)-1H-1,2,4-triazole-3-carboxamide] | 1510
20 | O=C1c2nn(Cc3ccccc3)c(C(F)F)c2CCN1c1cccc(Cl)c1F [Example 74, 2-Benzyl-6-(3-chloro-2-fluorophenyl)-3-(difluoromethyl)-2,4,5,6-tetrahydro-7H-pyrazolo[3,4-c]pyridin-7-one] | 42
21 | O=C1c2nn(Cc3cccc(F)c3F)c(Cl)c2CCN1c1cc(Cn2ccnc2)cc(Cl)c1F [Example 82, 6-(5-((1H-imidazol-1-yl)methyl)-3-chloro-2-fluorophenyl)-3-chloro-2-(2,3-difluorobenzyl)-2,4,5,6-tetrahydro-7H-pyrazolo[3,4-c]pyridin-7-one] | 863
22 | O=C1c2nn(Cc3ccccc3)c(CO)c2CCN1c1cccc(Cl)c1F [Example 73, 2-benzyl-6-(3-chloro-2-fluorophenyl)-3-(hydroxymethyl)-2,4,5,6-tetrahydro-7H-pyrazolo[3,4-c]pyridin-7-one] | 348
23 | O=C(Nc1cc(CO)cc(Cl)c1F)c1ncn(Cc2ccccc2)n1 [Example 94, 1-Benzyl-N-(3-chloro-2-fluoro-5-(hydroxymethyl)phenyl)-1H-1,2,4-triazole-3-carboxamide] | 797
24 | O=C1c2nn(Cc3ncccc3Cl)c(Cl)c2CCN1c1cccc(Cl)c1F [Example 64, 3-chloro-6-(3-chloro-2-fluorophenyl)-2-((3-chloropyridin-2-yl)methyl)-2,4,5,6-tetrahydro-7H-pyrazolo[3,4-c]pyridin-7-one] | 130
25 | O=C1c2nn(Cc3ncccc3F)cc2CCN1c1cc(CO)cc(Cl)c1F [Example 77, 6-(3-chloro-2-fluoro-5-(hydroxymethyl)phenyl)-2-((3-fluoropyridin-2-yl)methyl)-2,4,5,6-tetrahydro-7H-pyrazolo[3,4-c]pyridin-7-one] | 594
26 | Cc1ccc(Cn2nc3c(c2Cl)CCN(c2cccc(Cl)c2F)C3=O)cc1 [Example 65, 3-chloro-6-(3-chloro-2-fluorophenyl)-2-(4-methylbenzyl)-2,4,5,6-tetrahydro-7H-pyrazolo[3,4-c]pyridin-7-one] | 207
27 | NCc1c2c(nn1Cc1ccccc1)C(=O)N(c1cccc(Cl)c1F)CC2 [Example 72, 3-(aminomethyl)-2-benzyl-6-(3-chloro-2-fluorophenyl)-2,4,5,6-tetrahydro-7H-pyrazolo[3,4-c]pyridin-7-one] | 6110
28 | O=C1c2nn(CC3CCCOC3)c(Cl)c2CCN1c1cccc(Cl)c1F (stereo not drawn) [Example 69, 3-chloro-6-(3-chloro-2-fluorophenyl)-2-((tetrahydro-2H-pyran-3-yl)methyl)-2,4,5,6-tetrahydro-7H-pyrazolo[3,4-c]pyridin-7-one] | 563
29 | O=C(Nc1cc(Cn2cccn2)cc(Cl)c1F)c1ncn(Cc2ccccc2)n1 [Example 99, N-(5-((1H-pyrazol-1-yl)methyl)-3-chloro-2-fluorophenyl)-1-benzyl-1H-1,2,4-triazole-3-carboxamide] | 2540
30 | CS(=O)(=O)NCc1cc(Cl)c(F)c(NC(=O)c2ncn(Cc3ccccc3)n2)c1 [Example 93, 1-Benzyl-N-(3-chloro-2-fluoro-5-(methylsulfonamidomethyl)phenyl)-1H-1,2,4-triazole-3-carboxamide] | 1500
31 | Cc1cnc(Cn2cnc(C(=O)Nc3cccc(Cl)c3F)n2)cn1 [Example 91, N-(3-chloro-2-fluorophenyl)-1-((5-methylpyrazin-2-yl)methyl)-1H-1,2,4-triazole-3-carboxamide] | 2560
32 | CN(C)Cc1cc(Cl)c(F)c(N2CCc3c(nn(Cc4ncccc4F)c3Cl)C2=O)c1 [Example 78, 3-chloro-6-(3-chloro-5-((dimethylamino)methyl)-2-fluorophenyl)-2-((3-fluoropyridin-2-yl)methyl)-2,4,5,6-tetrahydro-7H-pyrazolo[3,4-c]pyridin-7-one] | > 10000
33 | O=C1c2nn(Cc3ccccc3)c(Br)c2CCN1c1cccc(Cl)c1F [Example 61, 2-benzyl-3-bromo-6-(3-chloro-2-fluorophenyl)-2,4,5,6-tetrahydro-7H-pyrazolo[3,4-c]pyridin-7-one] | 44.6
